This is an account of results in patent publication US20030144477A1, “Immunodominant acetylcholine receptor alpha subunit peptide: MHC complexes” (Corixa Corporation, priority 2001, published 2003).

Peptide text beside a SMILES is read from it.

For test [1], the system named is HLA-DR3 (a mix of DRB1*0301 and DRB3*0101). The test is described as follows: DELFIA competitive binding assay against biotinylated MBP 84-102, solubilized HLA-DR3. The arrangement: species or system human. The settings on record: for affinity for HLA-DR3: in words, from IC50; for IC50: competitive binding to solubilized HLA-DR3, pH 5.5, vs biotinylated MBP 84-102. The source says:
(§1) Important peptides in MG can be identified, for example, by screening a set of overlapping AChR peptides for binding to HLA-DR2 and HLA-DR3. The binding affinity of a peptide to the MHC compound can be measured using a variety of binding assays known to those of skill in the art. An example of suitable binding assay is the europium-based competitive binding assay (see, e.g., Tompkins et al. (1993) J. Immunol. Methods 163:209-216). Additionally, the capacity of the peptides of the invention to induce a T cell response can be determined using a variety of standard methods, known to those of skill in the art, as described below.
(§2) A set of 68 overlapping AChRα peptides (14 mer with 7 amino acids overlapping) was tested by dissociation-enhanced lenthanide fluoroimmunoassay (“DELFIA”) competitive binding assay for their relative affinity to […]. […] The sequence of the AChRα subunit is shown with each of the transmembrane regions (M1-M4) indicated by a shaded box.) Ten-fold dilutions (preferably 1-100,000 nM) of unlabeled AChRα peptides were co-incubated at pH 5.5 with the biotinylated myelin basic protein peptide MBP 84-102, and the IC50 of binding to solubilized HLA-DR2 (a mix of DRB1*1501 and DRB5*0101) or HLA-DR3 (a mix of DRB1*0301 and DRB3*0101) was measured. Measurement of the IC50 is preferably done by europium-streptavidin dissociation-enhanced lenthanide fluoroimmunoassay (DELFIA) and the IC50 typically calculated by four parameter fit analysis with the software program SOFTmax Pro. FIG. 2 lists the IC50s of each AChRα peptide binding to HLA-DR2 and HLA-DR3.

Test [2] has as its target HLA-DR1. The test is described as follows: DELFIA europium-based competitive binding assay, HLA-DR1. The arrangement: species or system human. The conditions noted are these: competitive binding to HLA-DR1.
Test [3] relates to PBMCs from MG patients and normal healthy individuals. The test is described as follows: modified ELISPOT assay of T cell reactivity (γ-IFN spots, reactive index). The format is cell-based, human. The conditions noted are these: reactive index above two; HLA type ignored; 9 MG patients vs 30 normals. The source says: In addition, a modified ELISPOT assay, termed the Clonal Expansion ELISA-Spot (or CEE-SPOT) assay can also be used in the context of the present invention. In the CEE-SPOT assay, PBMCs are stimulated with antigen for an appropriate amount of time (e.g., 7 days) to promote proliferation of the antigen-specific T cells prior to re-stimulation and lymphokine capture (e.g., on day 10). […] The production of lymphokines can be measured using this assay, including, e.g., IL-2, IL-4, etc. Typically, lymphokine is captured on a filter, preferably a PVDF filter to improve the background and intensity of the spots. Spot counting is typically carried out using videocamera imaging and computer analysis. This type of assay can also be used to identify epitopes derived from natural processing, by first stimulating T cells with the whole protein and then re-stimulating them with peptides derived from the protein.
T cell reactivity of the above peptides to patient and normal healthy individual PBMCs was measured by modified ELISPOT assay. PBMCs obtained from 30 normals and 9 MG patients were included in this study. The above peptides along with TT/PPD as positive control and media as negative control were tested for T cell reactivity. […] Antigen specific cell stimulation profile for each antigen was measured by the secretion of γ-IFN detected as spots using a pair of anti-γIFN antibodies set. […]

The target of test [4] is solubilized DR4 (HLA-DR4). The test is described as follows: europium-based competitive binding assay using solubilized DR4. Also on record: species or system human. The settings on record: competitive binding to solubilized DR4. As to the method: as §2
In addition, the relative affinity for HLA-DR4 of a set of sixty nine synthetic overlapping peptides of AchRα (14 mer with 7 amino acids overlapping) was measured by a europium-based competitive binding assay using solubilized DR4. The concentration of AchR peptides required to inhibit 50% binding of a known DR4 binding peptide was calculated for each peptide. High affinity peptides were identified based on their IC50 value.

In test [5] the target is solubilized HLA-DR2 (a mix of DRB1*1501 and DRB5*0101) (Homo sapiens, UniProt P01903+P01911+Q30154). The test is described as follows: DELFIA competitive binding assay against biotinylated MBP 84-102, solubilized HLA-DR2. The conditions noted are these: for relative affinity for HLA-DR2: in words, from IC50 / 1/IC50 plot.
Description: as §1
A set of 68 overlapping AChRα peptides (14 mer with 7 amino acids overlapping) was tested by dissociation-enhanced lenthanide fluoroimmunoassay (“DELFIA”) competitive binding assay for their relative affinity to HLA-DR4. […] Measurement of the IC50 is preferably done by europium-streptavidin dissociation-enhanced lenthanide fluoroimmunoassay (DELFIA) and the IC50 typically calculated by four parameter fit analysis with the software program SOFTmax Pro.

The subject of test [6] is HLA-DR2. The test is described as follows: IC50. The source says: Table printed on a drawing sheet, FIGURE 4
The best fit of AChRα peptide sequences to published HLA-DR2 motifs is indicated along with the IC50 value.
First copying reader's note: Sequences are printed with horizontal offsets as a motif alignment; the offsets are not reproduced in the grid.

For the compound DTPYLDITYHFVMQRLPL [AChRα 195-212], the “affinity for HLA-DR3” value in test [1] was “high affinity”.

As to `CC[C@H](C)[C@H](NC(=O)[C@H](CCC(N)=O)NC(=O)[C@H](CC(N)=O)NC(=O)[C@@H](NC(=O)[C@H](CCC(=O)O)NC(=O)[C@H](CC(=O)O)NC(=O)[C@@H](NC(=O)[C@H](CC(N)=O)NC(=O)[C@@H](NC(=O)[C@H](CC(C)C)NC(=O)[C@H](CCC(N)=O)NC(=O)[C@@H](NC(=O)[C@H](CC(C)C)NC(=O)[C@@H](N)CCC(N)=O)[C@@H](C)CC)[C@@H](C)CC)C(C)C)C(C)C)C(=O)O` [AChRα 36-49] (H-QLIQLINVDEVNQI-OH; N-terminus and C-terminus assumed), the IC50 in test [2] came out at 11.2 µM; in test [4], 3.63 µM; in test [5] (competitive binding to solubilized HLA-DR2, pH 5.5, vs biotinylated MBP 84-102), 11 µM; in test [1], 7.3 µM. Further, in test [3], the “per cent of patients that show reactivity compared with per cent of normal healthy individuals” value was “approximately twice”. Further, in test [1], the “affinity for HLA-DR3” value is listed as “high affinity”.

For the compound “V I I P C L L F S F L T G L (VIIPCLLFSFLTGL) [AChRα 218-231]”, in test [6], the concentration for half-maximal inhibition (IC50) is 6.79 µM. That is a single-digit micromolar value.

`CC(C)C[C@H](NC(=O)[C@H](CCCCN)NC(=O)[C@H](C)NC(=O)[C@@H](NC(=O)[C@@H](N)CC(C)C)C(C)C)C(=O)N[C@@H](Cc1ccccc1)C(=O)N[C@@H](CCCCN)C(=O)N[C@@H](CC(=O)O)C(=O)N[C@@H](Cc1ccc(O)cc1)C(=O)N[C@@H](CO)C(=O)N[C@@H](CO)C(=O)N[C@H](C(=O)N[C@H](C(=O)N[C@@H](CCCNC(=N)N)C(=O)N1CCC[C@H]1C(=O)N[C@H](C(=O)O)C(C)C)C(C)C)C(C)C` [AChRα 7-22] showed an IC50 in test [2] of more than 100 µM. For the same compound, in test [1], the half-maximal inhibitory concentration (IC50) is 6.15 µM and the “affinity for HLA-DR3” value is on record as “high affinity”.

The compound “I P N I M F F S T M K R P S R E K Q (IPNIMFFSTMKRPSREKQ) [AChRα 320-337]” registered a half-maximal inhibitory concentration (IC50) in test [6] of 6.61 µM. This lies in the single-digit micromolar range.

As to “V E V T V G L Q L I Q L I N (VEVTVGLQLIQLIN) [AChRα 27-42]”, the half-inhibitory concentration (IC50) in test [6] came out at 9.18 µM.

Consider “NWVRKVFIDTIPNIMFFS [AChRα 310-327, AChRα subunit peptide fragment, residues 310-327]”, for which the “relative affinity for HLA-DR2” value in test [5] is on record as “high relative affinity”.

“TGHITWTPPAIFKS [AChRα 113-126, AChRα subunit peptide fragment, residues 113-126] [listing 1 of 2 here]”: the “relative affinity for HLA-DR2” value in test [5] is “high relative affinity”.

In the case of `CC[C@H](C)[C@H](NC(=O)[C@H](Cc1ccccc1)NC(=O)[C@H](Cc1ccc(O)cc1)NC(=O)[C@H](CC(C)C)NC(=O)[C@@H]1CCCN1C(=O)[C@H](CC(C)C)NC(=O)[C@H](CCCNC(=N)N)NC(=O)[C@H](CCC(N)=O)NC(=O)[C@H](CCSC)NC(=O)[C@@H](NC(=O)[C@H](Cc1ccccc1)NC(=O)[C@@H](N)Cc1c[nH]cn1)C(C)C)C(=O)N[C@H](C(=O)N[C@@H](CC(N)=O)C(=O)O)C(C)C` [AChRα 204-217], the IC50 in test [2] was determined as 1.75 µM; in test [1], 71.3 µM.

As for “TGHITWTPPAIFKS [AChRα 113-126, AChRα subunit peptide fragment, residues 113-126] [listing 2 of 2 here]”, the concentration for half-maximal inhibition (IC50) in test [6] is 2.83 µM.

With MKLGTWTYDGSVVAINPESD [AChRα 144-163], in test [1], the “affinity for HLA-DR3” value is given as “high affinity”.

Broadly, the IC50 is the concentration needed to halve the response being measured.
